Data from the NIST ThermoML archive (doi:10.1016/j.fluid.2015.06.041).

Experiment: xn = mol fraction of the nth substance listed
Details: 101 kPa, Liquid; for viscosity: Capillary tube (Ostwald / Ubbelohde) method; for speed of sound: Frequency=2 MHz, Linear variable-path acoustic interferometer; for mass density: Vibrating tube method

ClCCCl [1,2-dichloroethane] + C1COCCO1
Details | mass density, 298.15 K [kg/m3] | mass density, 308.15 K [kg/m3] | mass density, 318.15 K [kg/m3] | speed of sound, 298.15 K [m/s] | viscosity, 298.15 K [mPa·s] | viscosity, 308.15 K [mPa·s] | viscosity, 318.15 K [mPa·s]
x2 = 0 | 1246.37 | 1231.21 | 1214.55 | 1193.6 | 0.7804 | 0.6744 | 0.5719
x2 = 0.0934 | 1221.34 | 1206.17 | 1189.14 | 1198.9 | 0.8045 | 0.6918 | 0.5856
x2 = 0.1881 | 1197.17 | 1182.34 | 1164.97 | 1204.7 | 0.8332 | 0.7127 | 0.6042
x2 = 0.2843 | 1173.99 | 1159.5 | 1141.96 | 1211.7 | 0.864 | 0.737 | 0.6266
x2 = 0.3819 | 1151.77 | 1137.63 | 1120 | 1218.7 | 0.8974 | 0.7628 | 0.6499
x2 = 0.4258 | 1142.09 | 1128.16 | 1110.67 | 1222.7 | 0.9132 | 0.7747 | 0.6611
x2 = 0.5816 | 1109.56 | 1096.17 | 1079.43 | 1240.4 | 0.9729 | 0.8211 | 0.705
x2 = 0.6838 | 1089.25 | 1076.38 | 1060.46 | 1256.1 | 1.016 | 0.8551 | 0.7374
x2 = 0.7875 | 1069.16 | 1056.58 | 1042.21 | 1277.4 | 1.064 | 0.8949 | 0.775
x2 = 0.8929 | 1048.86 | 1036.88 | 1024.08 | 1306.8 | 1.117 | 0.9435 | 0.8234
